Several values for one entry are separate records, joined by “and”; a condition that tells them apart may be missing. Identical values can stand only once. Results filed as inconclusive are left out. Activity calls are given as the source filed them. How the calls were made is not given here.
The compounds below were run on C. albicans CaCi-8 + fluconazole, Alamar Blue growth, 48 h (assay: resistant C. albicans growth inhibition with fluconazole, dose response, CaCi-8 strain, Alamar Blue fluorescence (AID 2423)).

Row | Structure (SMILES) | EC50
1 | Cc1ccc(Cn2nnc3c(=O)[nH]c(C4CCN(S(=O)(=O)c5ccc(C)cc5)CC4)nc32)cc1 | > 15 µM (inactive)
2 | O=c1c(Cl)c(NCCCO)cnn1-c1nc2ccccc2[nH]1 | > 15 µM (inactive)
3 | Cc1ccc(NC(=O)c2sc3nc(N)c(C#N)cc3c2N)cc1 | 0.625 µM
4 | O=C(N/N=C/c1c(O)ccc2ccccc12)c1cccnc1 | 1.43 µM
5 | CCN(CC)c1ccc(/C=N/NC(=O)c2ccc3nc[nH]c3c2)c(O)c1 | 1.16 µM
6 | CCCc1ccc(OCC(=O)Nc2cc(S(=O)(=O)CC)ccc2O)cc1 | 0.439 µM
7 | Cc1nnc(NC(=O)CSc2ncnc3c2cnn3-c2ccccc2C)s1 | 0.446 µM
8 | COc1ccnc(Oc2cccc(C(F)(F)F)c2)c1C(=O)N/C=N/OCc1ccccc1F | > 15 µM (inactive)
9 | CC(C)n1cc(/C=C/c2cc[n+](C)cc2)c2ccccc21 | 3.09 µM
10 | Cc1[nH]c2ccccc2c1C(=O)CCl | 0.175 µM
11 | C=C(C)CSc1[nH]c(=O)cc(C)c1C#N | 1.25 µM
12 | O=C(Nc1nc(=O)c2ccccc2s1)c1ccc(Cl)cc1 | > 15 µM (inactive)
13 | O=C(Cn1c2ccc(F)cc2c2nc3n(c(=O)c21)CCS3)N1CCCC1 | > 16 µM (inactive)
14 | CC(C)N1CCc2c(sc(NC(=O)c3nc4ccccc4s3)c2C(N)=O)C1 | 0.239 µM
15 | Cc1ccc(O)c(C2=NNC(c3ccc(Cl)cc3)C2)c1 (stereo not drawn) | 0.395 µM
16 | CN1CCN(CC(=O)N2CCn3c4c(c5cc(C6CCCCC6)ccc53)CCCC42)CC1 (stereo not drawn) | 4.19 µM
17 | CCc1nnc(NC(=O)CSc2nc(SC)ns2)s1 | 1.49 µM
18 | CCc1nnc(NC(=O)CSc2nnc(CNc3cccc(C)c3)n2-c2ccccc2)s1 | > 15 µM (inactive)
19 | O=C(Nc1ccc(NC(=O)c2cccs2)cc1)c1ccc(Br)o1 | 9.96 µM
20 | S=c1[nH]nc(C2CCCCC2)n1/N=C/c1ccc(Br)s1 | 1.94 µM
21 | COc1cccc(F)c1C(C[N+](=O)[O-])c1c(N)n(C)c(=O)n(C)c1=O (stereo not drawn) | 1.67 µM
22 | C(=N\NC1=Nc2cccc3cccc1c23)/c1ccccn1 | > 16 µM (inactive)
23 | COc1ccccc1N1CCN(Cc2cc(Br)c(O)c3ncccc23)CC1 | 4.49 µM

Row | Structure (SMILES) | EC50
24 | Cc1ccc(C(=O)CC(=O)c2ccc(C(C)(C)C)cc2)cc1 | 6.22 µM
25 | COC(=O)c1c[nH]n2c(=O)c(Cc3ccc(F)cc3Cl)c(C)nc12 | 0.755 µM
26 | Oc1c(C(Nc2nccs2)c2ccc(C(F)(F)F)cc2)ccc2cccnc12 (stereo not drawn) | 0.601 µM
27 | CC(C)OP(=O)(c1ccc(N(C)C)cc1)C(O)c1ccccc1 (stereo not drawn) | 4.32 µM
28 | CCOc1ccc(/C=C/C2=CC(C)(C)NC(=S)N2)cc1 | 1.16 µM
29 | Cc1ccc2nc(Cl)c3nnnn3c2c1 | 0.23 µM
30 | Oc1ccc(/C=N/NP(=S)(c2ccccc2)c2ccccc2)c(O)c1O | 8.83 µM
31 | Fc1cccc2sc(Nc3nnc(-c4ccco4)o3)nc12 | > 15 µM (inactive)
32 | S=c1[nH]nc(-c2cccs2)n1/N=C/c1cccs1 | 1.07 µM
33 | Cc1ccc(/C=C/C(=O)c2ccccc(=O)c2O)cc1C | 2.71 µM
34 | CCc1ccc(OCC(=O)NNC(=S)NC(=O)C2CCCCC2)c(Br)c1 | 1.79 µM
35 | COC(=O)c1ccc(COc2ccc(/C=C(\C#N)c3nc4ccccc4[nH]3)cc2OC)o1 | 2.62 µM
36 | COc1ccc(-[n+]2c(-c3ccccc3)cc(-c3ccccc3)cc2-c2ccccc2)cc1 | > 15 µM (inactive)
37 | O=C(CSc1ccc(Cl)cc1)Nc1nnc(-c2ccco2)o1 | 2.72 µM
38 | O=C(/C=C/c1ccccc1)NC(=S)Nc1ccc(N2CCOCC2)c(Cl)c1 | > 16 µM (inactive)
39 | Cn1c(=O)cc(OCCCC(=O)Nc2cccnc2)c2ccccc21 | > 16 µM (inactive)
40 | Cc1ccc(O)c(C(=O)CC(=O)c2ccccc2Cl)c1 | 1.57 µM
41 | C/C(=C\C(=O)OCCCCCCCCC(=O)O)C[C@@H]1OC[C@H](C[C@@H]2O[C@H]2[C@@H](C)[C@H](C)O)[C@@H](O)[C@H]1O | > 15 µM (inactive)
42 | Nc1nn2cc(-c3ccc(Br)cc3)nc2c2ccccc12 | 0.962 µM
43 | O=C1/C(=C/c2cccnc2)CCc2c1[nH]c1ccccc21 | 1.24 µM
44 | CCn1c(Sc2nc(C)nc3scc(-c4cccs4)c23)n[nH]c1=O | 0.703 µM
45 | COCc1nnc(NC(=O)c2ccc(S(=O)(=O)N3CCCCCC3)cc2)o1 | 12.9 µM
46 | CC(=O)Nc1ncnc2c1c(-c1ccc(Cl)cc1)nn2C(C)(C)C | 1.33 µM

Row | Structure (SMILES) | EC50
47 | COc1ccc2c(c1OC)C(=O)N1N=C(c3ccc(O)cc3)CC21 (stereo not drawn) | > 15 µM (inactive)
48 | COc1ccc(-c2cc(-c3c(O)c(OC)c4occc4c3OC)[nH]n2)cc1OC | > 16 µM (inactive)
49 | Cc1cc([N+](=O)[O-])c2ccccc2[n+]1[O-] | 0.195 µM
50 | Cn1cccc1-c1cc(C(=O)N2CCc3c([nH]c4ccccc34)C2c2ccccn2)[nH]n1 (stereo not drawn) | 0.741 µM
51 | NC(=O)c1c(NC(=O)c2ccco2)sc2c1CCC2 | 1.06 µM
52 | CC(=O)Nc1cccc(NC(=O)C2CCCN2C(=O)Nc2ccc(Cl)cc2)c1 (stereo not drawn) | > 16 µM (inactive)
53 | O=C(NCCc1ccccc1)c1c(O)c2cccc3c2n(c1=O)CC3 | > 15 µM (inactive)
54 | CCCCN(C)S(=O)(=O)c1ccc(C(=O)Nc2nnc(-c3cccs3)o2)cc1 | > 15 µM (inactive)
55 | O=C(O)c1ccc(Nc2cnc3ccccc3n2)cc1 | > 16 µM (inactive)
56 | O=C(Oc1c(CN2CCOCC2)cc(Cl)c2cccnc12)c1ccccc1Br | 4.12 µM
57 | COc1ccccc1N=Nc1ccc(O)c2ncccc12 | 0.871 µM
58 | CC(=O)N(O)CCCCCNC(=O)CCC(=O)N(O)CCCCCNC(=O)CCC(=O)N(O)CCCCCN | 0.727 µM
59 | COc1cccc(-n2c(SCc3cc(=O)oc4cc(O)c(O)cc34)nc3ccccc3c2=O)c1 | 5.67 µM
60 | c1ccc(-c2cccc(-c3ccccn3)n2)nc1 | 0.521 µM
61 | CCOc1ccc(-n2c(C)cc(C(=O)CCl)c2C)cc1 | 5.79 µM
62 | Cc1ccc(-c2nc(-c3cccnc3)no2)c(C)c1 | 10.5 µM
63 | O=c1c2cc(Br)ccc2nc(-c2ccc([N+](=O)[O-])cc2)n1O | 1.14 µM
64 | Cc1cc(NC(=O)c2ccc([N+](=O)[O-])o2)ccc1NC(=O)c1ccco1 | 0.338 µM
65 | Cc1ccc2c(c1)sc(-c1ccc(N(C)C)cc1)[n+]2C | 0.193 µM
66 | Cc1cccc(C(=O)CC(=O)c2cc(Cl)ccc2O)c1 | 2.67 µM
67 | CCN(CC)c1ccc(/C=N/NC(=O)c2ccco2)c(O)c1 | 2.42 µM
68 | c1cnc2c(c1)ccc1cccnc12 | 10.5 µM and 9.35 µM
69 | O=C(Nc1nc(-c2ccccn2)cs1)c1cc2ccccc2o1 | 0.903 µM

Row | Structure (SMILES) | EC50
70 | Cc1[nH]n(-c2cccc3ccccc23)c(=O)c1/C=N/NC(=O)c1cccc([N+](=O)[O-])c1 | 3.27 µM
71 | O=C(c1cc2c(s1)CCCCC2)N1CCN(c2ncccn2)CC1 | 0.135 µM
72 | COc1cccc(CN2C(=O)C3(C(C#N)=C(N)OC4=C3C(=O)CCC4)c3ccccc32)c1 (stereo not drawn) | 2.15 µM
73 | O=C(Oc1cc2oc(=O)c3c(c2cc1Cl)CCCC3)c1cccs1 | 0.653 µM
74 | Nc1nonc1-n1nnc(C(=O)N/N=C/c2cc(Br)ccc2O)c1CNc1ccccc1 | 0.634 µM
75 | COc1ccc(NC(=O)Nc2nc3c(s2)CCCC3)cc1 | 2.74 µM
76 | Cc1cc(C)c(S(=O)(=O)Nc2cccc(-n3cnnn3)c2)c(C)c1 | 13 µM
77 | Oc1ccc(O)c2c1C1c3ccccc3C2c2ccccc21 | 2.05 µM
78 | CC(C)Cc1nc2oc3c(=O)[nH]cnc3c2c2c1CCCC2 | 0.297 µM
79 | Cc1[nH]c2ccccc2c1/C=C/c1cc[n+](C)cc1 | 7.18 µM
80 | O=C(CCN1CCN(c2ccccc2)CC1)N/N=C/c1ccc(O)c(O)c1O | 4.02 µM
81 | O=C1C(Nc2ccccc2)=C/C(=N/S(=O)(=O)c2cccs2)c2ccccc21 | 3.35 µM
82 | CN(Cc1ccccc1)S(=O)(=O)c1ccc(C(=O)Nc2nnc(C3CC3)o2)cc1 | 0.291 µM
83 | Cc1noc(NC(=O)c2ccc(Cl)c(Cl)c2)c1Cl | > 15 µM (inactive)
84 | CCc1ccccc1NC(=S)N=Nc1c(O)n(C)c2ccc(S(=O)(=O)N3CCOCC3)cc12 | 5.16 µM
85 | CN(C/C=C/C#CC(C)(C)C)Cc1cccc2ccccc12 | 2.59 µM
86 | O=C1NC(=O)/C(=C\c2ccc(Br)o2)S1 | 1.72 µM
87 | CC(=O)Nc1ccc(Nc2c3ccccc3nc3ccccc23)cc1 | 5.98 µM
88 | COc1ccc(-c2n[nH]c(C)c2-c2cnn(-c3ccccc3)c2)c(O)c1 | 9.76 µM
89 | O=C(Cc1ccccc1)Nc1nonc1NC(=O)c1ccccc1 | 0.477 µM
90 | O=c1cnnc(N/N=C/c2ccccn2)[nH]1 | 0.875 µM
91 | CCC(C)OC(=O)C[N+](C)(C)CCOC1CC2CCC1(C)C2(C)C (stereo not drawn) | 6.59 µM
92 | CC(C)(C)c1ccc(C(=O)NC(=S)NNC(=O)COc2ccccc2)cc1 | 2.11 µM

Row | Structure (SMILES) | EC50
93 | N#Cc1cc(C#N)c(N2CCN(c3cccc(Cl)n3)CC2)nc1N | 1.58 µM
94 | O=c1c2ccc(Cl)cc2nc(-c2cccc(C(F)(F)F)c2)n1O | 0.832 µM
95 | Cc1cc(C(=O)N/N=C/c2cc(Cl)cc([N+](=O)[O-])c2O)c2ccccc2n1 | 2.79 µM
96 | COc1ccc(OC)c(C2C(C(=O)c3cc4ccccc4o3)=C(O)C(=O)N2c2cc(C)on2)c1 (stereo not drawn) | < 0.12 µM
97 | CCn1c(NN=O)nc2ccccc21 | 7.38 µM
98 | C=C1C(=O)O[C@@H]2C[C@@H](C)[C@@H]3C4OC4C(=O)[C@@]3(C)[C@@H](O)[C@H]12 (stereo partly drawn) | 0.219 µM
99 | CC(C)(C)c1ccc(CSc2cnn(C(C)(C)C)c(=O)c2Cl)cc1 | 0.324 µM
100 | Cn1c(NN=O)nc2ccccc21 | > 15 µM (inactive)
101 | O=Nc1c(O)n(Cc2cccc(C(F)(F)F)c2)c2ccccc12 | 0.932 µM
102 | CCN(CC)C(=O)/C(=C/c1ccc2c(c1)OCO2)NC(=O)c1ccc(Br)cc1 | 1.2 µM
103 | C[n+]1c2n(c3ccccc31)N=C(c1ccc(-c3ccccc3)cc1)CS2 | 1.88 µM
104 | COc1cc2c(cc1O)CC[n+]1cc3c(OC)c(OC)ccc3cc1-2 | > 16 µM (inactive)
105 | COc1ccc(OC)c(NC(=O)c2c3c(nc4ccccc24)CCC3)c1 | 6.61 µM
106 | COc1ccc(/C=N\NC(=O)c2cc(O)c(O)c(O)c2)cc1CN1CCN(c2ccc(F)cc2)CC1 | 1.58 µM
107 | Cc1cc2oc3ccc(NCCCn4ccnc4)cc3c(=O)c2cc1C | 1.99 µM
108 | N#C/C(=C\c1ccc(O)c(O)c1)C(=O)Nc1cccc2ncccc12 | > 15 µM (inactive)
109 | COc1cccc(NC(=O)c2ccc3nc(C)sc3c2)c1 | 1.49 µM
110 | Cc1ccc(-n2c(-c3ccccc3)c[n+]3c2CCC3)cc1 | 8.58 µM
111 | Cn1c(=O)n(CC#N)c2ccccc21 | 14.8 µM
112 | COc1ccc(C(=O)NC(=S)NNC(=O)c2cnccn2)cc1 | 3.54 µM
113 | CCOc1ccc2nc(N=NC3=C(O)CC(C)(C)CC3=O)sc2c1 | > 16 µM (inactive)

— PubChem BioAssay AID2423 (Broad Institute, 2010)
